Assay results reported in PubChem BioAssay AID651862 (Vanderbilt Specialized Chemistry Center, 2012).
The source made the active and inactive calls.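 Rule for the calls: active = tubulin-normalized E-cadherin at least double the DMSO level by western blot, or significantly raised by in-cell western; inactive = the rest.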

Test system: SW620/H520 cells, E-cadherin In-Cell Western
Experiment: CDH1 protein re-expression in cancer cells – SW620 and H520 cells, In-Cell Western (AID 651862)

Going from `O=C(NCCNC(=O)c1nccs1)c1cc(-c2ccccc2)on1` to `O=C(NCCCNC(=O)c1ccc[nH]c1=O)c1cc(-c2ccccc2)on1`, the EC50 falls from 3.82 µM to 2.22 µM (1.7-fold). The second is the more potent here.

`N#Cc1ccc(NCCCNC(=O)c2cc(-c3ccccc3)on2)nc1` and `[N-]=[N+]=Nc1nccc(NCCCNC(=O)c2cc(-c3ccccc3)on2)n1` are within 1.5-fold of each other in EC50: 3.13 µM for the first, 2.55 µM for the second.

`O=C(NCCCNCc1ccc(O)c(O)c1)c1cc(-c2ccccc2)on1` showed an EC50 of 4.56 µM.

With `O=C(NCCCNCc1cnoc1)c1cc(-c2ccccc2)on1` the EC50 was 12 µM (inactive).
